We go through 26 compounds from the supplement of paper PMC11061612.

Assay [1] has as its system JVM-3 (B-Cell Non-Hodgkin's Lymphoma). The assay can be described thus: Bliss excess, mean over the matrix (fraction); higher = more synergy. Summed up: (§1)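 After 24 hours at 37°C and 5% CO2 in 1536-well plates, cells in DMEM/F12 or RPMI plus 10% FBS received two-drug dose matrices for 72 hours. Viability came from CellTiter-Glo 2.0 luminescence and was scaled as inhibition, anchored at 0 by vehicle wells and at 1 by blank wells. Combination Emax is taken as the second-highest inhibition in the matrix, and Bliss excess as the observed combination effect less EA + EB − EA·EB, with EA and EB the single-agent effects.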

Assay [2] has the same test system. The experiment in a line: combination Emax (second highest fraction inhibited in the dose matrix, 72 h); higher = more inhibition; extreme values may be limits of the assay. Summed up: as §1
Assay [3] relates to NB69 (Neuroblastoma). Described as above. In short, it runs like this: as §1
The subject of assay [4] is OSC-20 (Oral Cavity Carcinoma). Described as above. Summed up: as §1
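Throughout, for Bliss excess, mean over the matrix: after 72 h of two-drug dosing.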

With `CN(C)CCCOc1ccc(-c2ccc3ncc4c(c3c2)n(C2CCOCC2)c(=O)n4C)cn1` [AZD0156] + C=CCn1c(=O)c2cnc(Nc3ccc(N4CCN(C)CC4)cc3)nc2n1-c1cccc(C(C)(C)O)n1 [AZD1775] (first compound max 1 µM, partner max 1 µM), the Bliss excess in assay [1] was -0.0347. In addition, the results for the “combination Emax” value in assay [2], in assay [3] and in assay [4] were 0.895, 0.877 and 0.233, respectively.

For the compound `CN(C)CCCOc1ccc(-c2ccc3ncc4c(c3c2)n(C2CCOCC2)c(=O)n4C)cn1` [AZD0156] + CCN(CCO)CCCOc1ccc2c(Nc3cc(CC(=O)Nc4cccc(F)c4)[nH]n3)ncnc2c1 [AZD2811] (first compound max 1 µM, 7x7, partner max 1 µM), in assay [1], the Bliss excess was -0.0252. In addition, the “combination Emax” value in assay [2] is 0.543; in assay [3], 0.588; in assay [4], 0.353.

As for `CN(C)CCCOc1ccc(-c2ccc3ncc4c(c3c2)n(C2CCOCC2)c(=O)n4C)cn1` [AZD0156] + C[C@@H]1COCCN1C2=NC(=NC(=C2)C3(CC3)[S@](=N)(=O)C)C4=C5C=CNC5=NC=C4 [AZD6738] (first compound max 1 µM, 7x7, partner max 10 µM), the Bliss excess in assay [1] was -0.0183. For the same compound, the “combination Emax” value in assay [2] is 0.783; in assay [3], 0.745; in assay [4], 0.334.

On to `CN(C)CCCOc1ccc(-c2ccc3ncc4c(c3c2)n(C2CCOCC2)c(=O)n4C)cn1` [AZD0156] + O=C(c1cc(Cc2n[nH]c(=O)c3ccccc23)ccc1F)N1CCN(C(=O)C2CC2)CC1 [Olaparib] (first compound max 3 µM, partner max 3 µM), for which the Bliss excess in assay [1] was found to be 0.234. The results for the “combination Emax” value in assay [2], in assay [3] and in assay [4] were 0.684, 0.474 and 0.245, respectively.

`C=CCn1c(=O)c2cnc(Nc3ccc(N4CCN(C)CC4)cc3)nc2n1-c1cccc(C(C)(C)O)n1` [AZD1775] + C1CN(CCC1(C(=O)N[C@@H](CCO)C2=CC=C(C=C2)Cl)N)C3=NC=NC4=C3C=CN4 [Capivasertib] (first compound max 3 µM, partner max 3 µM): the Bliss excess in assay [1] turned out to be 0.0012. Also, the “combination Emax” value in assay [2] was 0.971; in assay [3], 0.942; in assay [4], 0.619.

As to `C=CCn1c(=O)c2cnc(Nc3ccc(N4CCN(C)CC4)cc3)nc2n1-c1cccc(C(C)(C)O)n1` [AZD1775] + C[C@@H]1COCCN1C2=NC(=NC(=C2)C3(CC3)[S@](=N)(=O)C)C4=C5C=CNC5=NC=C4 [AZD6738] (first compound max 1 µM, partner max 10 µM), the Bliss excess in assay [1] was -0.0178. In addition, the “combination Emax” value came to 0.876 in assay [2], 0.971 in assay [3] and 0.401 in assay [4].

For the compound `C=CCn1c(=O)c2cnc(Nc3ccc(N4CCN(C)CC4)cc3)nc2n1-c1cccc(C(C)(C)O)n1` [AZD1775] + O=C(c1cc(Cc2n[nH]c(=O)c3ccccc23)ccc1F)N1CCN(C(=O)C2CC2)CC1 [Olaparib] (first compound max 1 µM, partner max 10 µM), in assay [1], the Bliss excess is -0.109. In addition, the “combination Emax” value in assay [2] was 0.895; in assay [3], 0.893; in assay [4], 0.289.

For the compound `CCN(CCO)CCCOc1ccc2c(Nc3cc(CC(=O)Nc4cccc(F)c4)[nH]n3)ncnc2c1` [AZD2811] + C=CCn1c(=O)c2cnc(Nc3ccc(N4CCN(C)CC4)cc3)nc2n1-c1cccc(C(C)(C)O)n1 [AZD1775] (first compound max 1 µM, partner max 1 µM), in assay [1], the Bliss excess came to 0.0365. In addition, the “combination Emax” value in assay [2] worked out at 0.775; in assay [3] it was 0.885; in assay [4], 0.369.

Consider `CCN(CCO)CCCOc1ccc2c(Nc3cc(CC(=O)Nc4cccc(F)c4)[nH]n3)ncnc2c1` [AZD2811] + C[C@@H]1COCCN1C2=NC(=NC(=C2)C3(CC3)[S@](=N)(=O)C)C4=C5C=CNC5=NC=C4 [AZD6738] (first compound max 1 µM, 7x7, partner max 10 µM), for which the Bliss excess in assay [1] is -0.0101. The “combination Emax” value in assay [2] came out at 0.723; in assay [3], 0.815; in assay [4], 0.449.

Take `CCN(CCO)CCCOc1ccc2c(Nc3cc(CC(=O)Nc4cccc(F)c4)[nH]n3)ncnc2c1` [AZD2811] + O=C(c1cc(Cc2n[nH]c(=O)c3ccccc23)ccc1F)N1CCN(C(=O)C2CC2)CC1 [Olaparib] (first compound max 1 µM, 7x7, partner max 10 µM): the Bliss excess in assay [1] was -0.0119. The entries for the “combination Emax” value in assay [2], in assay [3] and in assay [4] were 0.45, 0.659 and 0.382, respectively.

In the case of `CN(CCO)CC[C@H](CSc1ccccc1)Nc1ccc(S(=O)(=O)NC(=O)c2ccc(N3CCC([C@@H](O)c4ccccc4-c4ccc(Cl)cc4)CC3)cc2)cc1S(=O)(=O)C(F)(F)F` [AZD4320] + CN(C)CCCOc1ccc(-c2ccc3ncc4c(c3c2)n(C2CCOCC2)c(=O)n4C)cn1 [AZD0156] (first compound max 1 µM, 7x7, partner max 1 µM), the Bliss excess in assay [1] was found to be 0.0006. Further, the figures for the “combination Emax” value in assay [2], in assay [3] and in assay [4] were 0.92, 0.757 and 0.106, respectively.

In the case of `Cc1c2c(nn1C)CSCc1cc(n(C)n1)CSc1cc(c3ccccc3c1)OCCCc1c(C(=O)O)n(C)c3c-2c(Cl)ccc13` [AZD5991] + C1CN(CCC1(C(=O)N[C@@H](CCO)C2=CC=C(C=C2)Cl)N)C3=NC=NC4=C3C=CN4 [Capivasertib] (first compound max 1 µM, 7x7, partner max 3 µM), in assay [1], the Bliss excess is -0.0363. The “combination Emax” value turned out to be 0.544 in assay [2], 0.794 in assay [3] and 0.199 in assay [4].

`NC1(C(=O)N[C@@H](CCO)c2ccc(Cl)cc2)CCN(c2ncnc3[nH]ccc23)CC1` [Capivasertib] + CC(=O)c1c(C)c2cnc(Nc3ccc(N4CCNCC4)cn3)nc2n(C2CCCC2)c1=O [Palbociclib] (first compound max 10 µM, 7x7, partner max 10 µM): the entries for the “combination Emax” value in assay [3] and in assay [4] were 0.726 and 0.279, respectively.

On to `NC1(C(=O)N[C@@H](CCO)c2ccc(Cl)cc2)CCN(c2ncnc3[nH]ccc23)CC1` [Capivasertib] + CC(C)n1c(=O)n(C)c2cnc3cc(F)c(-c4ccc(OCCCN5CCCCC5)nc4)cc3c21 [AZD1390] (first compound max 10 µM, 7x7, partner max 0.3 µM), for which the “combination Emax” value in assay [3] was 0.341; in assay [4] it was 0.256.

Take `NC1(C(=O)N[C@@H](CCO)c2ccc(Cl)cc2)CCN(c2ncnc3[nH]ccc23)CC1` [Capivasertib] + CCN(CCO)CCCOc1ccc2c(Nc3cc(CC(=O)Nc4cccc(F)c4)[nH]n3)ncnc2c1 [AZD2811] (first compound max 10 µM, 7x7, partner max 1 µM): the “combination Emax” value in assay [3] was determined as 0.679; in assay [4], 0.387.

`NC1(C(=O)N[C@@H](CCO)c2ccc(Cl)cc2)CCN(c2ncnc3[nH]ccc23)CC1` [Capivasertib] + COc1nnc2ccc(N3CCC(c4ccc(OCCN5CCN(C)C(=O)[C@H]5C)cc4)CC3)nn12 [AZD5153] (first compound max 10 µM, 7x7, partner max 1 µM): the “combination Emax” value in assay [3] came to 0.91; in assay [4] it was 0.296.

As for `NC1(C(=O)N[C@@H](CCO)c2ccc(Cl)cc2)CCN(c2ncnc3[nH]ccc23)CC1` [Capivasertib] + C[C@@H]1COCCN1C2=NC(=NC(=C2)C3(CC3)[S@](=N)(=O)C)C4=C5C=CNC5=NC=C4 [AZD6738] (first compound max 10 µM, 7x7, partner max 10 µM), the figures for the “combination Emax” value in assay [3] and in assay [4] were 0.849 and 0.431, respectively.

On to `NC1(C(=O)N[C@@H](CCO)c2ccc(Cl)cc2)CCN(c2ncnc3[nH]ccc23)CC1` [Capivasertib] + Cn1cnc2c(F)c(Nc3ccc(Br)cc3Cl)c(C(=O)NOCCO)cc21 [Selumetinib] (first compound max 10 µM, 7x7, partner max 10 µM), for which the “combination Emax” value came out at 0.903 in assay [3] and 0.451 in assay [4].

Turning to `CS(=O)(=O)CCNCc1ccc(-c2ccc3ncnc(Nc4ccc(OCc5cccc(F)c5)c(Cl)c4)c3c2)o1` [Lapatinib] + C[C@@H](Oc1cc(-c2cnn(C3CCNCC3)c2)cnc1N)c1c(Cl)ccc(F)c1Cl [Crizotinib] (first compound max 10 µM, 7x7, partner max 10 µM), the “combination Emax” value in assay [3] was found to be 0.949; in assay [4], 0.795.

As to `CC(=O)c1c(C)c2cnc(Nc3ccc(N4CCNCC4)cn3)nc2n(C2CCCC2)c1=O` [Palbociclib] + CC1(C)CCC(CN2CCN(c3ccc(C(=O)NS(=O)(=O)c4ccc(NCC5CCOCC5)c([N+](=O)[O-])c4)c(Oc4cnc5[nH]ccc5c4)c3)CC2)=C(c2ccc(Cl)cc2)C1 [Venetoclax] (first compound max 10 µM, 7x7, partner max 1 µM), the “combination Emax” value in assay [3] worked out at 0.762; in assay [4], 0.0423.

Take `CC(=O)c1c(C)c2cnc(Nc3ccc(N4CCNCC4)cn3)nc2n(C2CCCC2)c1=O` [Palbociclib] + Cc1c2c(nn1C)CSCc1cc(n(C)n1)CSc1cc(c3ccccc3c1)OCCCc1c(C(=O)O)n(C)c3c-2c(Cl)ccc13 [AZD5991] (first compound max 10 µM, 7x7, partner max 1 µM): the results for the “combination Emax” value in assay [3] and in assay [4] were 0.91 and 0.168, respectively.

As for `CC(=O)c1c(C)c2cnc(Nc3ccc(N4CCNCC4)cn3)nc2n(C2CCCC2)c1=O` [Palbociclib] + Cn1cnc2c(F)c(Nc3ccc(Br)cc3Cl)c(C(=O)NOCCO)cc21 [Selumetinib] (first compound max 10 µM, 7x7, partner max 10 µM), the figures for the “combination Emax” value in assay [3] and in assay [4] were 0.988 and 0.182, respectively.

Regarding `Cn1cnc2c(F)c(Nc3ccc(Br)cc3Cl)c(C(=O)NOCCO)cc21` [Selumetinib] + C=CCn1c(=O)c2cnc(Nc3ccc(N4CCN(C)CC4)cc3)nc2n1-c1cccc(C(C)(C)O)n1 [AZD1775] (first compound max 10 µM, partner max 1 µM), the “combination Emax” value in assay [3] turned out to be 0.944; in assay [4], 0.27.

Turning to `Cn1cnc2c(F)c(Nc3ccc(Br)cc3Cl)c(C(=O)NOCCO)cc21` [Selumetinib] + CC(C)n1c(=O)n(C)c2cnc3cc(F)c(-c4ccc(OCCCN5CCCCC5)nc4)cc3c21 [AZD1390] (first compound max 10 µM, 7x7, partner max 0.3 µM), the results for the “combination Emax” value in assay [3] and in assay [4] were 0.836 and 0.12, respectively.

For `Cn1cnc2c(F)c(Nc3ccc(Br)cc3Cl)c(C(=O)NOCCO)cc21` [Selumetinib] + CCN(CCO)CCCOc1ccc2c(Nc3cc(CC(=O)Nc4cccc(F)c4)[nH]n3)ncnc2c1 [AZD2811] (first compound max 10 µM, 7x7, partner max 1 µM), the “combination Emax” value in assay [3] worked out at 0.921; in assay [4], 0.343.

Regarding `Cn1cnc2c(F)c(Nc3ccc(Br)cc3Cl)c(C(=O)NOCCO)cc21` [Selumetinib] + C[C@@H]1COCCN1C2=NC(=NC(=C2)C3(CC3)[S@](=N)(=O)C)C4=C5C=CNC5=NC=C4 [AZD6738] (first compound max 10 µM, 7x7, partner max 10 µM), the results for the “combination Emax” value in assay [3] and in assay [4] were 0.999 and 0.295, respectively.
